Entries after “also recorded” stand apart in the source; their conditions may differ.
Experiments:
[1] = test system: angiogenesis induced by MC38 cells; test: Dorsal air sac (DAS) in vivo angiogenesis assay; set-up: species or system A2/Kb transgenic mice; details: vaccinated twice with IFA-conjugated peptide, MC38 chamber, semiquantitative
Text: We examined the effects of peptide vaccination using dorsal air sac (DAS) assay which was designed to measure in vivo angiogenesis induced by tumor cells as previously described (Oikawa et al., (1997) Anticancer Res. 17: 1881-6). In brief, the A2/Kb TGM were vaccinated twice with 1-week interval in the left flank using IFA conjugated corresponding peptides as previously described with some modification (Schuler et al., (1997) J. Exp. Med. 186: 1183-7, Song et al., (1997) J. Exp. Med. 186: 1247-56, Specht et al., (1997) J. Exp. Med. 186: 1213-21). Millipore chamber (Millipore Corporation, Bedford, Mass.) was filled with PBS containing MC38 cells (1×10^6 cells) and implanted in the dorsum of anesthetized mice on day 0. The implanted chambers were removed from s.c. fascia on day 6 and then black rings were placed at the sites exposed to a direct contact with the chamber. The angiogenic response was assessed with photographs taken using a dissecting microscope. The extent of angiogenesis was determined with the number of newly formed blood vessels of >3 mm in length and scored semi quantitatively using an index ranging from 0 (none) to 5 (many).

[2] = test system: IFN-γ production of CTLs against T2 cells pulsed with peptides; test: IFN-γ ELISPOT assay, immunogenicity of epitope peptides in A2/Kb TGM; assay type: in vivo, A2/Kb transgenic mice; details: IFA-conjugated peptide injected day 0 and day 11; splenocytes day 21; E/T ratio x20
Procedure: For priming the peptide-specific CTLs, immunization was given using 200 μl of vaccine mixture, which contains 100 μg of an HLA-A2 restricted peptide and 100 μl of IFA per mouse. The vaccine was injected intradermally in the right flank for the first immunization on day 0 and in the other flank for the second on day 11. On day 21, splenocytes of the vaccinated mice were used as the responder cells, and T2 cells pulsed with or without peptides were used as the stimulator cells for ELISPOT assay.
At first, we evaluated the immunogenicity of the epitope peptides for A2/Kb TGM to examine the specific production of IFN-γ of the CTLs induced with these peptides by ELISPOT assay (FIG. 4). IFA-conjugated peptide was injected s.c. into A2/Kb TGM on day 0 and day 11. On day 21, splenocytes of the vaccinated mice were harvested and used as the responder cells, and T2 cells pulsed with or without peptides were used as the stimulator cells for ELISPOT assay. […] In this ELISPOT assay using A2/Kb TGM system, positive results were shown for the epitope peptides identified using human PBMCs.

[3] = test system: MCA205 cells; test: In vivo anti-tumor effects, therapeutic model; set-up: species or system A2/Kb transgenic mice; details: MCA205 i.d. day 0; vaccination with IFA-conjugated peptide after tumor challenge
Procedure: We examined the anti-tumor effects of this vaccination with a therapeutic model. The 1×10^5 MCA205 cells or the 5×10^5 B16 cells were injected i.d. in the right flank on day 0, and vaccination was performed on day 4 and day 14 using IFA conjugated corresponding peptides. […] The MCA205, a methylcholanthrene-induced murine fibrosarcoma cell line were injected i.d. into A2/Kb TGM on day 0, and vaccination was performed on these mice on 4 and 14 days after the tumor challenge using VEGFR1-1087, -770, -417 peptides conjugated with IFA (FIG. 6).

[4] = test system: T2 cells and A24-LCL pulsed with candidate peptides; test: CTL induction with peptide-pulsed DCs and 4-h 51Cr-release cytotoxicity assay on peptide-pulsed target cells; assay type: cell-based; details: human PBMC-derived DCs pulsed with peptide, autologous CD8+ T cells
Text: Monocyte-derived dendritic cells (DCs) were used to induce CTL responses against peptides presented on HLA as previously described (Nukaya et al., (1999) Int. J. Cancer. 80: 92-7, Tsai et al., (1997) J. Immunol. 158: 1796-802, Nakahara et al., (2003) Cancer Res. 63: 4112-8). In brief, the PBMCs were obtained from the healthy volunteers with corresponding HLAs and cultured in the presence of GM-CSF (provided by Kirin Brewery Company, Japan) and IL-4 (Genzyme/Techne, Minneapolis). After culture for 5 days, OK-432 (Chugai Pharmaceutical Corporation, Japan) was added to the culture to obtain mature DCs (Nakahara et al., (2003) Cancer Res. 63: 4112-8). On day 7, generated mature DCs were pulsed with each peptide for T cell stimulation. Using these peptide-pulsed DCs each time, the autologous CD8+ T cells were stimulated for three times on day 0, 7 and 14, and then the resultant lymphoid cells were tested for their cytotoxic activities on day 21. To generate CTL clones, established CTL lines were plated in 96-well plates at 0.3, 1, and 3 cells per well with allogenic PBMCs and […] as stimulator cells. Cytotoxic activities of resulting CTL clones were tested on the 14th day. Cytotoxic activities were measured using a standard 4-h ^51Cr-release assay. The T2 cells and A24-LCL were used as target cells pulsed with candidate peptides. Percent specific lysis was calculated as follows: % Specific lysis=[(experimental release−spontaneous release)/(maximum release−spontaneous release)]×100. Immunogenicity of Epitope Peptides in A2/Kb TGM

## TLFWLLLTL (synthetic vascular endothelial growth factor receptor 1 (VEGFR1, Flt-1) epitope peptide binding HLA-A*0201 with high cytotoxic T lymphocyte (CTL) inducibility) [SEQ ID NO: 2]
[1]; listed as VEGFR1-770
  Inhibition of tumor-induced angiogenesis (newly formed vessels): significant inhibition on angiogenesis was observed; also recorded: Significant inhibition of tumor-induced angiogenesis was observed
[2]
  Specific production of IFN-γ for the corresponding peptide: Specific production of IFN-γ for the corresponding peptide was observed
[3]
  Suppression of tumor growth: Significant suppression of tumor growth was observed
[4]
  CTL inducibility: particularly high CTL inducibility

## VLLWEIFSL (synthetic vascular endothelial growth factor receptor 1 (VEGFR1, Flt-1) epitope peptide binding HLA-A*0201 with high cytotoxic T lymphocyte (CTL) inducibility) [SEQ ID NO: 1]
[1]; listed as VEGFR1-1087
  Inhibition of tumor-induced angiogenesis (newly formed vessels): significant inhibition on angiogenesis was observed; also recorded: Significant inhibition of tumor-induced angiogenesis was observed
[2]
  Specific production of IFN-γ for the corresponding peptide: Specific production of IFN-γ for the corresponding peptide was observed
[3]
  Suppression of tumor growth: Significant suppression of tumor growth was observed
[4]
  CTL inducibility: particularly high CTL inducibility

## SYGVLLWEIF (synthetic vascular endothelial growth factor receptor 1 (VEGFR1, Flt-1) epitope peptide binding HLA-A*2402 with high cytotoxic T lymphocyte (CTL) inducibility) [SEQ ID NO: 32]
[4]
  CTL inducibility: particularly high CTL inducibility

## NLTATLIVNV (synthetic vascular endothelial growth factor receptor 1 (VEGFR1, Flt-1) epitope peptide binding HLA-A*0201 with high cytotoxic T lymphocyte (CTL) inducibility) [SEQ ID NO: 13]
[1]; listed as VEGFR1-417
  Inhibition of tumor-induced angiogenesis (newly formed vessels): significant inhibition on angiogenesis was observed; also recorded: Significant inhibition of tumor-induced angiogenesis was observed
[2]
  Specific production of IFN-γ for the corresponding peptide: Specific production of IFN-γ for the corresponding peptide was observed
[4]
  CTL inducibility: particularly high CTL inducibility

Reference: patent publication US8663647B2, “Epitope peptides derived from vascular endothelial growth factor receptor 1 and vaccines containing these peptides” (Oncotherapy Science, Inc., priority 2005, dated 2014)
